Conditions: 101.33 kPa, Liquid, Vibrating wire viscometry

CC(C)CCCC(C)CCCC(C)CCCCC(C)CCCC(C)CCCC(C)C (configuration not stated) [2,6,10,15,19,23-hexamethyltetracosane]
Conditions | viscosity [mPa·s]
283.77 K | 60.2
288.47 K | 46.1
293.29 K | 35.59
298.12 K | 27.95
303.07 K | 22.45
308.09 K | 18.3
313.13 K | 15
318.17 K | 12.5
323.19 K | 10.57
328.26 K | 8.99
333.2 K | 7.8
338.18 K | 6.81
343.07 K | 6
348.08 K | 5.32
353.08 K | 4.72
358.13 K | 4.2
362.98 K | 3.78

CCCCC(CC)COC(=O)CCCCCCCCC(=O)OCC(CC)CCCC (configuration not stated) [bis(2-ethylhexyl) decanedioate]
Conditions | viscosity [mPa·s]
284.06 K | 31.95
288.71 K | 25.84
293.37 K | 21.14
298.26 K | 17.42
303.1 K | 14.55
307.9 K | 12.37
313.24 K | 10.4
318.26 K | 9.023
323.17 K | 7.865
328.26 K | 6.878
333.2 K | 6.067
338.16 K | 5.435
342.81 K | 4.883
348.07 K | 4.38
352.98 K | 3.987
358.09 K | 3.626

CCCCC(CC)COC(=O)c1ccccc1C(=O)OCC(CC)CCCC (configuration not stated) [bis(2-ethylhexyl) 1,2-benzenedicarboxylate]
Conditions | viscosity [mPa·s]
288.53 K | 110.7
293.38 K | 78.73
298.29 K | 57.94
303.33 K | 43.27
308.23 K | 33.17
313.18 K | 26.13
317.99 K | 21.08
323.02 K | 16.96
328.12 K | 13.91
333.19 K | 11.62
337.71 K | 9.903
343.53 K | 8.268
348.48 K | 7.158
353.68 K | 6.199

Source: the NIST ThermoML archive (doi:10.1021/je4005245)
